Laboratory results: US20220152019A1, “COMPOUNDS, COMPOSITIONS, AND METHODS FOR TREATING INFLAMMATORY OR IMMUNE-MEDIATED CONDITIONS OF SURFACE TISSUES” (Landos Biopharma, Inc., priority 2020, published 2022)

Experiments:
[1] = system: Imiquimod (IMQ)-induced psoriasis in C57BL/6 mice; assay: Imiquimod (IMQ)-induced model of psoriasis, topical treatment, PASI scoring; assay type: in vivo; settings: BT-11 dihydrochloride salt 200 μg in DMSO, vs DMSO control, day 7
Procedure: (§1) Imiquimod (IMQ)-induced model. C57BL/6 mice were anesthetized, shaved, and briefly exposed to depilatory cream on the surface of the back. Mice were given three days to recover from the procedure prior to entry to the study. After 3 days, mice were challenged with approximately 60 mg of […] imiquimod cream daily by spreading cream over the shaved area. Treatment with BT-11 dihydrochloride salt (200 μg) in dimethyl sulfoxide (DMSO) or a DMSO control lacking BT-11 occurred by topical application to the shaved area. Mice were scored for erythema, scaling and skin thickness, summarized into a composite psoriasis area and severity index (PASI) score on a scale from 0 to 12, on day 7.

[2] = system: MC903-induced atopic dermatitis in mice; assay: MC903-induced model of atopic dermatitis, topical cream, disease activity index scoring; assay type: in vivo; settings: BT-11 topical cream 2% (Formula F3) daily to the ear, vs placebo cream
Procedure: (§2) MC903-induced model. MC903 (2 nM in 20 uL ethanol) was applied to the dorsal ear skin three times per week for nine applications. BT-11 topical cream (2%) (Formula F3 is Table 2) was applied to the ear daily. Mice were scored for erythema, scaling and skin thickness, summarized into a composite disease activity index score through day 19.

[3] = system: splenic CD3+CD4+ T cells and CD45+ cells; assay: Flow cytometry of spleen cells from the IMQ-induced psoriasis model; assay type: in vivo, mice; settings: topical BT-11 vs DMSO control
Procedure: as §1
Analysis. Spleens were excised and crushed by microscope slides. Red blood cells were hypotonically lysed from the resultant suspension. Samples were filtered, washed and centrifuged prior to staining. Production of TNF, IL-17, and IL-21 were quantified from CD3+CD4+ T cells and IL6 from CD45+ by flow cytometry.

[4] = system: cervical lymph node CD3+CD4+ T cells; assay: Flow cytometry of cervical lymph node cells from the MC903-induced atopic dermatitis model; assay type: in vivo, mice; settings: cervical lymph nodes, BT-11 cream 2% vs placebo cream
Procedure: as §2, with “19. Analysis. Cervical lymph nodes were excised and crushed by microscope slides. Red blood cells were hypotonically lysed from the resultant suspension. Samples were filtered, washed and centrifuged prior to staining. Production of IFNγ, IL-5, and IL-4 were quantified from CD3+CD4+ T cells by flow cytometry.” for “19.”

Compound: O=C(c1cccc(-c2nc3ccccc3[nH]2)n1)N1CCN(C(=O)c2cccc(-c3nc4ccccc4[nH]3)n2)CC1 [BT-11, piperazine-1,4-diylbis((6-(1H-benzo[d]imidazo-2-yl)pyridine-2-yl)methanone)]
- PASI subscores (erythema, scaling, skin thickness) [1]: reductions in each subscore
- disease activity subscores (erythema, scaling, skin thickness) [2]: reductions in each subscore
- reduction of severity of disease (composite disease activity index score) ([2]; through day 19, FIG. 2A): approximately 70%
- splenic proportion of TNF-positive CD4+ T cells ([3]; FIG. 1B): reduced
- splenic proportion of IL-17-positive CD4+ T cells ([3]; FIG. 1C): reduced
- splenic proportion of IL-21-positive CD4+ T cells ([3]; FIG. 1D): reduced
- splenic proportion of IL-6+ cells within all CD45+ immune cells ([3]; FIG. 1E): reduction
- cervical lymph node proportion of IFNγ-positive CD4+ T cells ([4]; FIG. 2B): reduced
- cervical lymph node proportion of IL-4-positive CD4+ T cells ([4]; FIG. 2C): reduced
- cervical lymph node proportion of IL-5-positive CD4+ T cells ([4]; FIG. 2D): reduced
